The test system of the test is mites. The test is described as follows: Field trial of mite control on field beans variety Paloma, foliar spray. As to conditions: for Observed, % control of mites 6DAA3: 6 days after application 3, rate g/ha: abamectin 6.7, cyflumetofen 150, combination 6.7 & 150, percentage compared to non-treated control; for Observed, % control of mites 14DAA3: fourteen days after application 3, rate g/ha: abamectin 6.7, cyflumetofen 150, combination 6.7 & 150, percentage compared to non-treated control; for Observed, % control of mites 6DAA1: six days after application 1, rate g/ha: abamectin 6.7, cyflumetofen 150, combination 6.7 & 150, percentage compared to non-treated control; for Observed, % control of mites 6DAA2: six days after application 2, rate g/ha: abamectin 6.7, cyflumetofen 150, combination 6.7 & 150, percentage compared to non-treated control. The test is classed as in vivo. The text has this: The action to be expected E for a given active ingredient combination obeys the so-called COLBY formula and can be calculated as follows (COLBY, S. R. “Calculating synergistic and antagonistic responses of herbicide combination”. Weeds, Vol. 15, pages 20-22; 1967): • ppm=milligrams of active ingredient (=a.i.) per liter of spray mixture • X=% action by active ingredient A) using p ppm of active ingredient • Y=% action by active ingredient B) using q ppm of active ingredient.
According to COLBY, the expected (additive) action of active ingredients A)+B) using p+q ppm of active ingredient is
If the action actually observed (O is greater than the expected action (E), then the action of the combination is super-additive, i.e. there is a synergistic effect.
Trials are conducted on field beans variety Paloma to determine the effects of the present combination.
The trials are carried out on a plot is 1 m^2, with three replicates for each trial and spray volume ranges from 1500-1600 l/ha.
The first application of the pesticide formulation (whether solo or combination) is at pest threshold as foliar spray (at 35 days after planting). Thereafter the second and third foliar applications are at 42 and 49 days after planting.
The assessment of the mite control is carried out on the basis of number of mites on five leaves for each plot at the times indicated in the table (i.e., six days after application 1 (6DAA1), six days after application 2 (6DAA2), 6 days after application 3 (6DAA3), and fourteen days after application 3 (14DAA3)). The values are given as a percentage compared to a non-treated control.
The Table below also provides the expected % control for the combination based on the Colby formula.

On to abamectin, for which the “Observed, % control of mites 6DAA3” value came to 59%; the “Observed, % control of mites 14DAA3” value amounted to 66%; the “Observed, % control of mites 6DAA1” value turned out to be 92%; the “Observed, % control of mites 6DAA2” value came to 32%.

Consider `COCCOC(=O)C(C#N)(C(=O)c1ccccc1C(F)(F)F)c1ccc(C(C)(C)C)cc1` (centres unmarked) [cyflumetofen], for which the “Observed, % control of mites 6DAA3” value is 26%; the “Observed, % control of mites 14DAA3” value was determined as 32%; the “Observed, % control of mites 6DAA1” value is listed as 79%; the “Observed, % control of mites 6DAA2” value stood at 64%.

These data come from patent publication US8598130B2, “Insecticidal combinations” (priority 2008, dated 2013).
